We go through 18 molecules from PMC12207589, “Exploring Linear mono-, bis- and tris-Acetylene Containing Agonists of the Human Olfactory Receptor OR1A1” (Journal of Medicinal Chemistry, 2025).

The EC50 is the concentration needed to bring the measured effect to its halfway point.

Molecules are shown by their SMILES. Several values for one entry are separate records, joined by “and”; a condition that tells them apart may be missing. Equal values may be shown once. Entries after “also recorded” stand apart in the source; their conditions may differ.

Test [1] deals with T1, human olfactory receptor OR1A1 (Homo sapiens, UniProt Q9P1Q5).
T1 construct: expressed in transfected cells; host or cells: HEK293T-derived cells
T1 sequence (Q9P1Q5 1-309): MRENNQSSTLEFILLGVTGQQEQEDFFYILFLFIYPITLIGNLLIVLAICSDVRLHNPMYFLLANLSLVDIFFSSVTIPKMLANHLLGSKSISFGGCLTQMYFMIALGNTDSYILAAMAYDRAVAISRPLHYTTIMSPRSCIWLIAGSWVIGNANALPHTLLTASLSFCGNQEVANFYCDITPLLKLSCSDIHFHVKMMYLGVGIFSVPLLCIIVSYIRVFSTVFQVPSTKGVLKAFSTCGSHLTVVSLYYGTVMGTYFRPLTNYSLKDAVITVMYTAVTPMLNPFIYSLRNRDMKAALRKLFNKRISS
The experiment in a line: Dual-Glo luciferase assay of olfactory receptor activation (agonist dose-response). The test is classed as cell-based. As to conditions: for EC50: OR1A1 response, best-fit value with 95% confidence interval, EC50 = ligand concentration for half-maximal response; for agonist activity / response of OR1A1 (in words): luciferase assay, normalized responses. The protocol: Olfactory receptor activation was evaluated using the Dual-Glo Luciferase Assay System (Promega (Beijing) Biotech Co., Ltd., Beijing, China). HEK293T-derived cells were maintained in minimal essential medium (Sigma) containing 10% fetal bovine serum (Sigma) (M10), 500 µg/mL penicillin–streptomycin (Invitrogen), and 6 µg/mL amphotericin B (Sigma) in a 37 °C incubator with 5% CO2. After culturing to a desired confluence, the cells were plated on 96-well plates (Corning Inc., Kennebunk, ME, USA). For each 96-well plate, 1 μg of CRE-luciferase, 0.5 μg of pRL-SV40, 0.5 μg of OR, 0.5 μg of RTP1S, and 0.25 μg of M3R were transfected using the transfection reagent Lipofectamine2000 (Invitrogen, Life Technologies Corp., Carlsbad, CA, USA). Twenty-four hours post transfection, the transfection media were removed, and the cells were rinsed with 50 μL PBS buffer (pH 7.4) per well. The cells were then stimulated with 25 μL 1% (v/v) ligand samples diluted in CD293 stimulation medium (Gibco Brand, ThermoFisher Biochemical Products (Beijing) Co., Ltd., Beijing, China). Four hours post stimulation, firefly luciferase (FL) and Renilla luciferase (RL) activities were measured following manufacturer’s protocols, using a Synergy H1 plate reader (BioTek Instruments, Winooski, VT, USA). Normalized luciferase activity was calculated using the formula: FL/RLX-FL/RLXC, where FL/RLX is the response to the ligands, FL/RLXC is the basal value of the same OR. Each experiment was repeated at least 3 times and error bars indicate standard error mean. Data were analyzed with GraphPad Prism.

A further test has as its system OR1A1 olfactory receptor. The settings on record: cited from earlier work; for agonist quality on OR1A1 (in words): known OR1A1 agonists, Introduction and Figure 1, reference numbers not given; for EC50: enantiomers of citronellol on OR1A1, already reported, reference number not given.

As for `CC(=O)c1cccc(C#CC#CC(C)(C)C)c1` [compound 14], in test [1], the EC50 is 35.5 µM and the “agonist activity / response of OR1A1 (in words)” value (from here on “agonist activity / response”) was “activated OR1A1”.

Turning to `CC(C)(C)C#CC#Cc1cccc2c1CCC2=O` [compound 17], the “agonist activity / response” value in test [1] was “micromolar range potency with modest to good agonist efficacy”.

Take `C[C@@H]1CCCCCCCCCCCCC(=O)C1` [compound 1, muscone]: in the test on OR1A1 olfactory receptor, the “agonist quality on OR1A1 (in words)” value is reported as “very poor agonists”.

Turning to `CC(C)(C)C#CC#Cc1ccc2c(c1)COC2` [compound 18], the “agonist activity / response” value in test [1] is “displayed a stronger response”.

`CC(=O)c1c(C)c([N+](=O)[O-])c(C(C)(C)C)c([N+](=O)[O-])c1C` [compound 2, musk ketone]: the “agonist quality on OR1A1 (in words)” value in the test on OR1A1 olfactory receptor was “very poor agonists”.

In the case of `CC(=O)c1ccc(C#CC#CC(C)(C)C)cc1` [compound 13], in test [1], the EC50 is 36.3 µM and the “agonist activity / response” value was “activated OR1A1”.

As to `CC(=O)C#CC#Cc1ccc(C(C)(C)C)cc1` [compound 15], in test [1], the “agonist activity / response” value is “essentially inactive”.

Take `C[C@H](O)C#CC#Cc1ccc(C(C)(C)C)cc1` [(S)-21]: the EC50 in test [1] is 24 µM.

Take `CC(C)=CCC[C@H](C)CCO` [(S)-7, citronellol]: on OR1A1 olfactory receptor, the EC50 is 92.6 µM.

On to `CC(O)C#CC#Cc1ccc(C(C)(C)C)cc1` (centres unmarked) [compound 21], for which, in test [1], the EC50 is 43.7 µM and the “agonist activity / response” value is on record as “much stronger interaction with the OR1A1 receptor than the corresponding ketone 15”.

For `CC(C)=CCCC(C)CCO` (centres unmarked) [compound 7, citronellol], in the test with OR1A1 olfactory receptor, the “agonist quality on OR1A1 (in words)” value is given as “good agonist”.

Take `CCCCCC(=O)C(C)C(C)=O` (centres unmarked) [compound 9, 3-methyl-2,4-nonanedione]: the “agonist quality on OR1A1 (in words)” value in the test on OR1A1 olfactory receptor is recorded as “extremely potent agonist”.

Consider `CC(=O)c1cccc(C#CC#CC#CC(C)(C)C)c1` [compound 19], for which the “agonist activity / response” value in test [1] is recorded as “did not result in an active compound; also recorded: weak agonist”.

Consider `CC(C)(O)C#CC#Cc1ccc(C(C)(C)C)cc1` [compound 22], for which, in test [1], the “agonist activity / response” value is “weakest agonist in this alcohol series”.

`C[C@@H](O)C#CC#Cc1ccc(C(C)(C)C)cc1` [(R)-21]: in test [1], the EC50 is 7.45 µM and 7.41 µM; the “agonist activity / response” value was “strongest agonist effect”.

For the molecule `CC(C)=CCC[C@@H](C)CCO` [(R)-7, citronellol], the 50% effective concentration (EC50) on OR1A1 olfactory receptor was 82.5 µM.

Turning to `CC(C)(C)c1ccc(C#CC#CCO)cc1` [compound 20], in test [1], the EC50 was 42.7 µM and the “agonist activity / response” value is on record as “strong agonist activity”.

Turning to `CC(C)(C)C#CC#Cc1ccc2c(c1)C(=O)CC2` [compound 16], the “agonist activity / response” value in test [1] is on record as “not active”.
